How the values were obtained:
[1] = test system: P388 (Mus musculus); experiment: Inhibitory concentration of compound was tested against P388 tumor growth cell line
[2] = test system: Colon 26; experiment: (§1) Inhibitory concentration of compound was tested against Colon 26 tumor growth cell line; assay type: functional, cell-based; conditions: Mus musculus
[3] = test system: MC-38; experiment: Inhibitory concentration of compound was tested against Colon 38 tumor growth cell line; assay type: functional, cell-based; conditions: Mus musculus
[4] = test system: P388; experiment: inhibitory concentration of compound was tested against P388:Methotrexate resistant cells tumor growth cell line; assay type: functional, cell-based; conditions: Mus musculus
[5] = test system: KB; experiment: Inhibitory concentration of compound was tested against KB tumor growth cell line; assay type: functional, cell-based; conditions: Homo sapiens
[6] = target: T1, Dihydrofolate reductase (Mus musculus, UniProt P00375); experiment: Compound was tested for the inhibition of dihydrofolate reductase in P388 cells; assay type: cell-based
T1 sequence (P00375 whole entry): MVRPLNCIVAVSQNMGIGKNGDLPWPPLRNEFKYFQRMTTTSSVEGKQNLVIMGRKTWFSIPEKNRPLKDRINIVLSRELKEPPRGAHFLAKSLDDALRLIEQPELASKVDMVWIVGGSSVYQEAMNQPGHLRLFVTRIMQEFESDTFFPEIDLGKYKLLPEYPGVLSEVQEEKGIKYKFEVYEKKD

[7] = test system: Mus musculus; experiment: Compound was evaluated for the life span assay against P388 Leukemia in mice (Controls died in an average of 9.8 days) at 0.05 (mg/kg) dose; assay type: functional
[8] = test system: Mus musculus; experiment: Compound was evaluated for the activity against Colon 26 Mouse colorectal carcinoma in mice by tumor weight assay at 0.6 (mg/kg) dose; assay type: functional
[9] = test system: Mus musculus; experiment: Compound was evaluated for the activity against LC-6 Non-Small cell lung carcinoma in mice by tumor weight assay at 5 (mg/kg) dose experiment-1; assay type: functional
[10] = test system: P388; experiment: Inhibitory concentration of compound was tested against P388:Methotrexate resistant cells tumor growth cell line; assay type: functional, cell-based; conditions: Mus musculus
[11] = test system: Mus musculus; experiment: Compound was evaluated for the life span assay against P388 Leukemia in mice (Controls died in an average of 9.8 days) at 0.1 (mg/kg) dose; assay type: functional
[12] = test system: Mus musculus; experiment: Compound was evaluated for the activity against LC-6 Non-Small cell lung carcinoma in mice by tumor weight assay at 5 (mg/kg) dose experiment-2; assay type: functional
[13] = test system: Mus musculus; experiment: Compound was evaluated for the activity against Colon 26 Mouse colorectal carcinoma in mice by tumor weight assay at 1.25 (mg/kg) dose; assay type: functional
[14] = test system: Mus musculus; experiment: Compound was evaluated for the life span assay against P388 Leukemia in mice (Controls died in an average of 9.8 days) at 0.39 (mg/kg) dose; assay type: functional
[15] = test system: Mus musculus; experiment: Compound was evaluated for the activity against LC-6 Non-Small cell lung carcinoma in mice by tumor weight assay at 2.5 (mg/kg) dose experiment-2; assay type: functional
[16] = test system: Colon 26; experiment: Inhibitory concentration of compound was tested against Colon 26 Mouse Colorectal Carcinoma on 4 hour exposure; assay type: functional, cell-based; conditions: Colon 26, 4 h
[17] = test system: Mus musculus; experiment: Compound was evaluated for the activity against LC-6 Non-Small cell lung carcinoma in mice by tumor weight assay at 2.5 (mg/kg) dose experiment-1; assay type: functional
[18] = test system: Mus musculus; experiment: Compound was evaluated for the life span assay against P388 Leukemia in mice (Controls died in an average of 9.8 days) at 0.2 (mg/kg) dose; assay type: functional
[19] = test system: Mus musculus; experiment: Compound was evaluated for the activity against LC-6 Non-Small cell lung carcinoma in mice by tumor weight assay at 1.3 (mg/kg) dose experiment-2; assay type: functional
[20] = test system: Mus musculus; experiment: Compound was evaluated for the life span assay against P388 Leukemia in mice (Controls died in an average of 9.8 days) at 0.78 (mg/kg) dose; assay type: functional
[21] = test system: Mus musculus; experiment: Compound was evaluated for the life span assay against P388 Leukemia in mice (Controls died in an average of 9.8 days) at 1.56 (mg/kg) dose; assay type: functional
[22] = test system: Mus musculus; experiment: Compound was evaluated for the activity against Colon 26 Mouse colorectal carcinoma in mice by tumor weight assay at 2.5 (mg/kg) dose; assay type: functional
[23] = test system: Mus musculus; experiment: Compound was evaluated for the life span assay against P388 Leukemia in mice (Controls died in an average of 9.8 days) at 3.13 (mg/kg) dose; assay type: functional
[24] = test system: Mus musculus; experiment: Compound was evaluated for the activity against Colon 26 Mouse colorectal carcinoma in mice by tumor weight assay at 0.3 (mg/kg) dose; assay type: functional
[25] = test system: Mus musculus; experiment: Compound was evaluated for the activity against Colon 26 Mouse colorectal carcinoma in mice by tumor weight assay at 10 (mg/kg) dose; assay type: functional
[26] = test system: Mus musculus; experiment: Compound was evaluated for the life span assay against P388 Leukemia in mice (Controls died in an average of 9.8 days) at 12.5 (mg/kg) dose; assay type: functional
[27] = test system: Mus musculus; experiment: Compound was evaluated for the life span assay against P388 Leukemia in mice (Controls died in an average of 9.8 days) at 50 (mg/kg) dose; assay type: functional
[28] = test system: Mus musculus; experiment: Compound was evaluated for the activity against Colon 26 Mouse colorectal carcinoma in mice by tumor weight assay at 5 (mg/kg) dose; assay type: functional
[29] = test system: P388; experiment: Inhibitory concentration of compound was tested against P388 tumor growth cell line; assay type: functional, cell-based; conditions: Mus musculus
[30] = test system: Mus musculus; experiment: Compound was evaluated for the activity against LC-6 Non-Small cell lung carcinoma in mice by tumor weight assay at 10 (mg/kg) dose experiment-2; assay type: functional
[31] = test system: Mus musculus; experiment: Compound was evaluated for the activity against LC-6 Non-Small cell lung carcinoma in mice by tumor weight assay at 20 (mg/kg) dose experiment-2; assay type: functional
[32] = test system: Mus musculus; experiment: Compound was evaluated for the activity against LC-6 Non-Small cell lung carcinoma in mice by tumor weight assay at 10 (mg/kg) dose in experiment-1; assay type: functional
[33] = test system: Mus musculus; experiment: Compound was evaluated for the activity against Colon 26 Mouse colorectal carcinoma in mice by tumor weight assay at 20 (mg/kg) dose; assay type: functional
[34] = test system: Mus musculus; experiment: Compound was evaluated for the activity against LC-6 Non-Small cell lung carcinoma in mice by tumor weight assay at 40 (mg/kg) dose experiment-2; assay type: functional
[35] = test system: Mus musculus; experiment: Compound was evaluated for the life span assay against P388 Leukemia in mice (Controls died in an average of 9.8 days) at […] (mg/kg) dose; assay type: functional
[36] = test system: Mus musculus; experiment: Compound was evaluated for the activity against LC-6 Non-Small cell lung carcinoma in mice by tumor weight assay at 20 (mg/kg) dose experiment-1; assay type: functional
[37] = test system: Mus musculus; experiment: Compound was evaluated for the activity against Colon 26 Mouse colorectal carcinoma in mice by tumor weight assay at 40 (mg/kg) dose
[38] = species: Mus musculus; experiment: as §1; assay type: functional
[39] = test system: Mus musculus; experiment: Compound was evaluated for the activity against LC-6 Non-Small cell lung carcinoma in mice by tumor weight assay at 20 (mg/kg) dose; assay type: functional
[40] = test system: Mus musculus; experiment: Compound was evaluated for the life span assay and the activity against P388 Leukemia in mice (Controls died in an average of 9.8 days) at 3.13 (mg/kg) dose; assay type: functional
[41] = test system: Mus musculus; experiment: Compound was evaluated for the activity against LC-6 Non-Small cell lung carcinoma in mice by tumor weight assay at 40 (mg/kg) dose; assay type: functional
[42] = test system: Mus musculus; experiment: Compound was evaluated for the activity against LC-6 Non-Small cell lung carcinoma in mice by tumor weight assay at 10 (mg/kg) dose; assay type: functional
[43] = target: T1, Dihydrofolate reductase; experiment: Binding affinity against dihydrofolate reductase
[44] = target: T2, Thymidylate synthase (Lactobacillus casei, UniProt P00469); experiment: Binding affinity against TS
T2 sequence (P00469 whole entry): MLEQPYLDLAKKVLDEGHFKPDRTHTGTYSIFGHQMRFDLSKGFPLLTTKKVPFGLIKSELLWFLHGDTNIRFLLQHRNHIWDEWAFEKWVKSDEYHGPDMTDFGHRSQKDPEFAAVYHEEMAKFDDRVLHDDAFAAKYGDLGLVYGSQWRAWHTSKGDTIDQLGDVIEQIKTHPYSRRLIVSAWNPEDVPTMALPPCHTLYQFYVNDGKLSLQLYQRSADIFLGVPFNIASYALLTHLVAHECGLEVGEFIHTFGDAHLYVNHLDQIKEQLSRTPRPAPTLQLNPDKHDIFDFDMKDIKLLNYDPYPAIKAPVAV

With `Nc1nc2c(c(=O)[nH]1)C(CCc1ccc(C(=O)NC(CCC(=O)O)C(=O)O)cc1)CC2` (stereo unspecified) the IC50 [1] was over 1000 nM, the IC50 [2] was over 1000 nM and the IC50 [3] was over 1000 nM. The IC50 [4] was over 1000 nM, the IC50 [5] was over 1000 nM and the IC50 [6] was 2.1 nM.

Work on `Nc1nc(N)c2c(n1)CCC2CCCc1ccc(C(=O)NC(CCC(=O)O)C(=O)O)cc1` (stereo unspecified) yielded a T/C [7] of 120%, a T/C [8] of 49% and a T/C [9] of 23%. The IC50 [10] was 19 nM, the T/C [11] was 130% and the IC50 [2] was 3 nM. For the same molecule, the IC50 [3] was 5.1 nM, the T/C [12] was 1% and the T/C [13] was 38%. For the same molecule, the T/C [14] was 158%, the T/C [15] was 9% and the IC50 [16] was 1700 nM. It also gave a T/C [17] of 6%, a T/C [18] of 147% and a T/C [19] of 4%. It also gave a T/C [20] of 170%, an IC50 [5] of 1.7 nM and a T/C [21] of 180%. It also gave a T/C [22] of 31%, a T/C [23] of 138% and a T/C [24] of 71%.

Work on `Nc1nc(N)c2c(n1)CCC2CCc1ccc(C(=O)NC(CCC(=O)O)C(=O)O)cc1` (stereo unspecified) yielded a T/C [25] of 41%, a T/C [26] of 147% and an IC50 [10] of 64 nM. For the same molecule, the T/C [27] was 148%, the IC50 [2] was 8 nM and the IC50 [3] was 10 nM. The IC50 [16] was 190 nM, the T/C [28] was 62% and the T/C [20] was 129%. The IC50 [5] was 4.1 nM, the T/C [22] was 95% and the T/C [23] was 135%. For the same molecule, the IC50 [6] was 72 nM and the IC50 [29] was 7.1 nM.

`Nc1nc(O)c2c(n1)CCC2CCCc1ccc(C(=O)NC(CCC(=O)O)C(=O)O)cc1` (stereo unspecified) gave an IC50 [1] of over 1000 nM, an IC50 [10] of over 1000 nM and an IC50 [2] of over 1000 nM. It also gave an IC50 [5] of over 1000 nM.

Work on `CCC(Cc1cnc2nc(N)nc(N)c2n1)c1ccc(C(=O)N[C@@H](CCC(=O)O)C(=O)O)cc1` (stereo partly specified) [EDATREXATE] yielded a T/C [25] of 70%, a T/C [26] of 157% and an IC50 [10] of 44 nM. It also gave a T/C [30] of 22%, a T/C [31] of 1% and an IC50 [2] of 4.8 nM. For the same molecule, the IC50 [3] was 11 nM, the T/C [14] was 135% and the T/C [32] was 63%. For the same molecule, the IC50 [16] was over 40000 nM, the T/C [33] was 64% and the T/C [18] was 114%. For the same molecule, the T/C [20] was 136%, the IC50 [5] was 3 nM and the T/C [21] was 155%. It also gave a T/C [23] of 162%, a T/C [34] of 1% and a T/C [35] of 165%. It also gave a T/C [36] of 38% and an IC50 [29] of 4.3 nM.

`CN(Cc1cnc2nc(N)nc(N)c2n1)c1ccc(C(=O)N[C@@H](CCC(=O)O)C(=O)O)cc1` [METHOTREXATE] showed a T/C [25] of 71%, a T/C [37] of 31% and an IC50 [10] of 223 nM. The IC50 [38] was 31 nM, the IC50 [16] was over 40000 nM and the T/C [39] was 53%. It also gave a T/C [33] of 65%, a T/C [40] of 149% and a T/C [41] of 35%. It also gave a T/C [20] of 122%, an IC50 [5] of 19 nM and a T/C [35] of 168%. For the same molecule, the IC50 [29] was 23 nM and the T/C [42] was 100%.

`Nc1nc2[nH]cc(CCc3ccc(C(=O)N[C@@H](CCC(=O)O)C(=O)O)cc3)c2c(=O)[nH]1` [PEMETREXED] was tested, and the Ki [43] was 560 nM and the Ki [44] was 550 nM.

From ChEMBL document CHEMBL1127525, “Synthesis and antitumor activities of novel 6-5 fused ring heterocycle antifolates: N-[4-[omega-(2-amino-4-substituted-6,7-dihydrocyclopenta [d]pyrimidin-5-yl)alkyl]benzoyl]-L-glutamic acids” (J Med Chem, 1994)
